≈ marks a conversion by molar mass, not a printed value.
Columns and labels:
[1] = test system: Staphylococcus aureus; assay: Antimicrobial activity against methicillin-resistant Staphylococcus aureus assessed as inhibition of bacterial growth by agar dilution method; type: functional
[2] = test system: Staphylococcus aureus; assay: Antibacterial activity against methicillin-resistant Staphylococcus aureus infected in mouse model assessed as increase in survival rate relative to control; type: functional
[3] = test system: Staphylococcus aureus; assay: Antibacterial activity against methicillin-resistant Staphylococcus aureus infected in mouse model assessed as reduction in log10CFU in lungs (reference value: 8.47 log10CFU); type: functional
[4] = test system: Staphylococcus aureus; assay: Antimicrobial activity against methicillin-resistant Staphylococcus aureus MR101 Mu50 measured after 18 hrs by microplate dilution method; type: functional
[5] = test system: Staphylococcus aureus; assay: Antimicrobial activity against hospital acquired methicillin-resistant Staphylococcus aureus incubated for 24 hrs by CLSI protocol based method; type: functional
[6] = test system: Staphylococcus aureus; assay: Antimicrobial activity against community acquired methicillin-resistant Staphylococcus aureus incubated for 24 hrs by CLSI protocol based method; type: functional
[7] = test system: Staphylococcus aureus; assay: Antimicrobial activity against methicillin-resistant Staphylococcus aureus assessed as inhibition of bacterial growth at 0.5 ug/ml relative to control; type: functional; parameters: scale not given: the % may be the effect or the level left; conditions: dose 0.5 µg/ml
[8] = test system: Staphylococcus aureus; assay: Antimicrobial activity against fluoroquinolone-resistant Staphylococcus aureus assessed as inhibition of bacterial growth at 0.5 ug/ml relative to control; type: functional; parameters: scale not given: the % may be the effect or the level left; conditions: dose 0.5 µg/ml
[9] = test system: Staphylococcus aureus; assay: Antimicrobial activity against methicillin-resistant Staphylococcus aureus; type: functional, organism-based
[10] = Cytotoxicity against African green monkey Vero cells; type: toxicity, cell-based; conditions: chlorocebus sabaeus
[11] = test system: Staphylococcus aureus; assay: Antimicrobial activity against methicillin-resistant Staphylococcus aureus assessed as inhibition of microbial growth at 15.63 ug/ml relative to control; type: functional; parameters: scale not given: the % may be the effect or the level left; conditions: dose 15.63 µg/ml
[12] = Permeability coefficient of compound; type: ADME; conditions: not told; read-out: Kp (converted)

Compound	Activity [2] [%]	Activity [3] [log10CFU]	Activity [11] [%]	Papp [12] [×10⁻⁶ cm/s]	further results
C[C@H]1CCc2c(N3CCC(O)CC3)c(F)cc3c(=O)c(C(=O)O)cn1c23.N=C(N)NCCC[C@H](N)C(=O)O.O.O.O.O					MIC [1]: 1 µg/mL
CC(=O)N[C@@H]1[C@H](Oc2c3cc4cc2Oc2ccc(cc2Cl)[C@@H](O[C@@H]2O[C@@H](CO)[C@@H](O)[C@H](O)[C@@H]2NC(C)=O)[C@@H]2NC(=O)[C@H](NC(=O)[C@@H]4NC(=O)[C@H]4NC(=O)[C@@H](Cc5ccc(c(Cl)c5)O3)NC(=O)[C@H](N)c3ccc(O)c(c3)Oc3cc(O)cc4c3)c3ccc(O)c(c3)-c3c(O[C@H]4O[C@H](CO)[C@@H](O)[C@@H](O)[C@@H]4O)cc(O)cc3[C@@H](C(=O)O)NC2=O)O[C@@H](CO)[C@@H](O)[C@@H]1O	45	7.36			MIC [4]: 0.5 µg/mL (≈ 0.283 µM)
Cc1c(N2CC(NC(C)C)C2)c(F)cc2c(=O)c(C(=O)O)cn(-c3nc(N)c(F)cc3F)c12					MIC90 [5]: 0.06 µg/mL (≈ 0.13 µM); MIC90 [6]: 0.06 µg/mL (≈ 0.13 µM)
COc1c(N2CC[C@@H](C3(C)CC3)C2)c(F)cc2c(=O)c(C(=O)O)cn([C@@H]3C[C@@H]3F)c12					Activity [7]: 90%; Activity [8]: 90%
CO/N=C1\CCN(c2nc3c(cc2F)c(=O)c(C(=O)O)cn3C2CC2)CC1(C)CN (stereo unspecified)					MIC [9]: 8 µg/mL (≈ 19.2 µM); CC50 [10]: 177 µg/mL (≈ 423 µM)
CCOC(=O)c1cn(C2CC2)c2cc(N3CCNCC3)ccc2c1=O			80	0.106	
CCCOC(=O)c1cn(C2CC2)c2cc(N3CCNCC3)ccc2c1=O			80	0.195	
COC(=O)c1cn(C2CC2)c2cc(N3CCNCC3)ccc2c1=O			80	0.00797	
Cc1c(N2C[C@@H](F)[C@@H](C3(C)CC3)C2)c(F)c(N)c2c(=O)c(C(=O)O)cn([C@@H]3C[C@@H]3F)c12	90	6.33			MIC [4]: 0.125 µg/mL (≈ 0.287 µM)
CN[C@H](CC(C)C)C(=O)N[C@H]1C(=O)N[C@@H](CC(N)=O)C(=O)N[C@H]2C(=O)N[C@H]3C(=O)N[C@H](C(=O)N[C@H](C(=O)O)c4cc(O)cc(O)c4-c4cc3ccc4O)[C@H](O)c3ccc(c(Cl)c3)Oc3cc2cc(c3O[C@@H]2O[C@H](CO)[C@@H](O)[C@H](O)[C@H]2O[C@H]2C[C@](C)(N)[C@H](O)[C@H](C)O2)Oc2ccc(cc2Cl)[C@H]1O [VANCOMYCIN]	45	7.99			

— ChEMBL document CHEMBL5244218, “Quinolone derivatives and their activities against methicillin-resistant Staphylococcus aureus (MRSA)” (Eur J Med Chem, 2018)
